The source of these data is PMC9765439, “Systems-Wide Dissection of Organic Acid Assimilation in Pseudomonas aeruginosa Reveals a Novel Path To Underground Metabolism” (mBio, 2022).

The target of assay [1] is T1, GltAPa (citrate synthase) (Pseudomonas aeruginosa, UniProt P14165).
T1 construct: gene gltA; full-length ORF, 429 aa; pET-19m, N-terminal TEV-cleavable His6 tag, cut; E. coli host; hexamer in asymmetric unit
T1 sequence (P14165 1-428): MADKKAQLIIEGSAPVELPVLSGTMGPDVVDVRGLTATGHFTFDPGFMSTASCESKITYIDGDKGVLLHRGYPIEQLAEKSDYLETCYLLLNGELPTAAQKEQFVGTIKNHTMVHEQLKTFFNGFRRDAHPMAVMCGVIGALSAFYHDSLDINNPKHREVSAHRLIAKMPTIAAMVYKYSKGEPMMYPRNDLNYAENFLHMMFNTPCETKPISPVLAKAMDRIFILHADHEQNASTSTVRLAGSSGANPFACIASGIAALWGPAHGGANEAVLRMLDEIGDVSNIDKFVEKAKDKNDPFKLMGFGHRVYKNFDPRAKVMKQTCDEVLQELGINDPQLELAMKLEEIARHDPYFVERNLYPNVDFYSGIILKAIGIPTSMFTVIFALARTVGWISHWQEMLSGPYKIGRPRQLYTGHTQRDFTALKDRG
Kind of assay: DTNB (TNB release) spectrophotometric assay, […] nm. The format is biochemical. Conditions: 0.5 mM oxaloacetate; 50 mM HEPES pH 7.5, 0.1 M KCl, 0.54 M glycerol; 37 °C.

Assay [2] has as its target T2, PrpCPa (2-methylcitrate synthase, 2-MCS) (Pseudomonas aeruginosa, UniProt Q9I5E3).
T2 construct: gene prpC; pET-19m, N-terminal TEV-cleavable His6 tag, cut; E. coli host; homodimer
T2 sequence (Q9I5E3 1-375): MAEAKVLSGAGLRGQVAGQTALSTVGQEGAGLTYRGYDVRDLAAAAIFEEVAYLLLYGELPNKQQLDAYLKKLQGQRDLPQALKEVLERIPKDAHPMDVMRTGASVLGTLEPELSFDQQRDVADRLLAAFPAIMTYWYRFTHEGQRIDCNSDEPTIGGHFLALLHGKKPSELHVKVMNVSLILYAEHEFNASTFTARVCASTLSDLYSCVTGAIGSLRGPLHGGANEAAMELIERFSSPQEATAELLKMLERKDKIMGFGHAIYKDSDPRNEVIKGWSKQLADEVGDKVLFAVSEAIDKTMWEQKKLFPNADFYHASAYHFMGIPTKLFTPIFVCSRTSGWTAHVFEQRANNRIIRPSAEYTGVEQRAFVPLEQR
Put plainly: X-ray crystallography. The class given is binding. Conditions: 2.5 mM oxaloacetate in crystallisation, Bis-Tris pH 5.5; active site of chain D only.

For the compound `CC(=O)SCCNC(=O)CCNC(=O)[C@H](O)C(C)(C)COP(=O)(O)OP(=O)(O)OC[C@H]1O[C@@H](n2cnc3c(N)ncnc32)[C@H](O)[C@@H]1OP(=O)(O)O` [acetyl-CoA], the “DTNB (TNB release) spectrophotometric assay, 412 nm” value in assay [1] is given as “Purified GltAPa is a citrate synthase with no detectable 2-methylcitrate synthase activity”. With `O=C(O)CC(=O)C(=O)O` [oxaloacetate], the X-ray crystallography result in assay [2] is listed as “Crystal structure of oxaloacetate-bound PrpCPa represented in cartoon (PDB: 6S87)”.
